For this experiment, the system named is MV-4-11 cells. Description: Gene expression microarray analysis (Affymetrix PrimeView) and GSEA. The experiment is classed as cell-based, human. The arrangement: RFU PODN (11730768_x_at) / Fold change /veh PODN (11730768_x_at) / RFU LINC00158 (11744669_a_at) / Fold change /veh LINC00158 (11744669_a_at) / RFU DUSP10 (11751237_a_at) / Fold change /veh DUSP10 (11751237_a_at) / RFU ID3 (11757404_x_at) / Fold change /veh ID3 (11757404_x_at) / RFU PLEKHG5 (11737974_s_at) / Fold change /veh PLEKHG5 (11737974_s_at) / RFU LRRC4B (11730491_at) / Fold change /veh LRRC4B (11730491_at) / RFU GIMAP4 (11747438_a_at) / Fold change /veh GIMAP4 (11747438_a_at) / RFU KRT8 (11758183_x_at) / Fold change /veh KRT8 (11758183_x_at) / RFU CNN1 (11734310_a_at) / Fold change /veh CNN1 (11734310_a_at) / RFU VPS37D (11726825_at) / Fold change /veh VPS37D (11726825_at) / RFU C10orf10 (11716522_x_at) / Fold change /veh C10orf10 (11716522_x_at) / RFU KIR2DL2 /// KIR2DL4 /// KIR2DL5A /// KIR2DL5B /// KIR2DS1 /// KIR2DS2 /// KIR2DS3 /// KIR2DS4 /// KIR3DL3 /// KIR3DL3 /// KIR3DS1 (11738374_at) / Fold change /veh KIR2DL2 /// KIR2DL4 /// KIR2DL5A /// KIR2DL5B /// KIR2DS1 /// KIR2DS2 /// KIR2DS3 /// KIR2DS4 /// KIR3DL3 /// KIR3DL3 /// KIR3DS1 (11738374_at) / RFU C1QL1 (11718748_at) / Fold change /veh C1QL1 (11718748_at) / RFU TMPRSS4 (11747572_a_at) / Fold change /veh TMPRSS4 (11747572_a_at) / RFU HAMP (11756126_x_at) / Fold change /veh HAMP (11756126_x_at) / RFU RNFT2 (11725882_a_at) / Fold change /veh RNFT2 (11725882_a_at) / RFU NR4A2 (11747474_a_at) / Fold change /veh NR4A2 (11747474_a_at) / RFU ABCC12 (11746883_a_at) / Fold change /veh ABCC12 (11746883_a_at) / RFU TMEM136 (11760407_x_at) / Fold change /veh TMEM136 (11760407_x_at) / RFU CLDN22 /// WWC2 (11732394_at) / Fold change /veh CLDN22 /// WWC2 (11732394_at) / RFU HLA-DPB1 (11760878_x_at) / Fold change /veh HLA-DPB1 (11760878_x_at) / RFU SPINT1 (11716480_a_at) / Fold change /veh SPINT1 (11716480_a_at) / RFU GAP43 (11754022_s_at) / Fold change /veh GAP43 (11754022_s_at) / RFU A4GNT (11735810_at) / Fold change /veh A4GNT (11735810_at) / RFU PRB3 (11715151_x_at) / Fold change /veh PRB3 (11715151_x_at) / RFU TUBB4B (11761932_at) / Fold change /veh TUBB4B (11761932_at) / RFU CAPN14 (11732068_a_at) / Fold change /veh CAPN14 (11732068_a_at) / RFU TMCC2 (11721928_a_at) / Fold change /veh TMCC2 (11721928_a_at) / RFU IRGQ (11745062_a_at) / Fold change /veh IRGQ (11745062_a_at) / RFU FAM174B (11720279_a_at) / Fold change /veh FAM174B (11720279_a_at) / RFU TMPRSS4 (11748680_a_at) / Fold change /veh TMPRSS4 (11748680_a_at) / RFU FAM212B (11763350_a_at) / Fold change /veh FAM212B (11763350_a_at) / RFU PLEKHG5 (11743358_a_at) / Fold change /veh PLEKHG5 (11743358_a_at) / RFU ZSCAN30 (11745921_a_at) / Fold change /veh ZSCAN30 (11745921_a_at) / RFU CMKLR1 (11741424_a_at) / Fold change /veh CMKLR1 (11741424_a_at) / RFU LOC101060620 /// MAPK8IP1 (11723275_at) / Fold change /veh LOC101060620 /// MAPK8IP1 (11723275_at) / RFU SPTSSB (11747773_x_at) / Fold change /veh SPTSSB (11747773_x_at) / RFU PRSS12 (11739890_at) / Fold change /veh PRSS12 (11739890_at) / RFU BIN1 (11741810_x_at) / Fold change /veh BIN1 (11741810_x_at) / RFU WNT11 (11732464_a_at) / Fold change /veh WNT11 (11732464_a_at) / RFU C10orf10 (11716521_a_at) / Fold change /veh C10orf10 (11716521_a_at) / RFU C5orf56 (11738089_at) / Fold change /veh C5orf56 (11738089_at) / RFU CYB561 (11721691_x_at) / Fold change /veh CYB561 (11721691_x_at) / RFU ANKRD19P (11752326_a_at) / Fold change /veh ANKRD19P (11752326_a_at) / RFU OR2T12 /// OR2T33 /// OR2T8 (11738714_s_at) / Fold change /veh OR2T12 /// OR2T33 /// OR2T8 (11738714_s_at) / RFU VCAN (11748164_a_at) / Fold change /veh VCAN (11748164_a_at) / RFU JSRP1 (11732532_at) / Fold change /veh JSRP1 (11732532_at) / RFU KRTAP10-11 (11738290_x_at) / Fold change /veh KRTAP10-11 (11738290_x_at) / RFU MYO3A (11730013_a_at) / Fold change /veh MYO3A (11730013_a_at) / RFU EBF3 (11725865_a_at) / Fold change /veh EBF3 (11725865_a_at) / RFU CAMK2N1 (11719241_x_at) / Fold change /veh CAMK2N1 (11719241_x_at) / RFU C5orf56 (11738088_a_at) / Fold change /veh C5orf56 (11738088_a_at) / RFU OLFML3 (11715873_a_at) / Fold change /veh OLFML3 (11715873_a_at) / RFU LOC100653217 /// NTM (11731650_a_at) / Fold change /veh LOC100653217 /// NTM (11731650_a_at) / RFU MAPK11 (11762145_a_at) / Fold change /veh MAPK11 (11762145_a_at) / RFU FIZ1 (11724087_x_at) / Fold change /veh FIZ1 (11724087_x_at) / RFU OASL (11726364_x_at) / Fold change /veh OASL (11726364_x_at) / RFU SOX15 (11748057_x_at) / Fold change /veh SOX15 (11748057_x_at) / RFU CD79A (11719716_a_at) / Fold change /veh CD79A (11719716_a_at) / RFU HIST1H1D (11736915_at) / Fold change /veh HIST1H1D (11736915_at) / RFU CASKIN2 (11723855_a_at) / Fold change /veh CASKIN2 (11723855_a_at) / RFU LOC730098 (11760151_x_at) / Fold change /veh LOC730098 (11760151_x_at) / RFU OR4N2 (11742367_at) / Fold change /veh OR4N2 (11742367_at) / RFU PRRT2 (11749266_a_at) / Fold change /veh PRRT2 (11749266_a_at) / RFU SNX32 (11753110_a_at) / Fold change /veh SNX32 (11753110_a_at) / RFU CDHR5 (11726645_a_at) / Fold change /veh CDHR5 (11726645_a_at) / RFU RCAN1 (11760418_a_at) / Fold change /veh RCAN1 (11760418_a_at) / RFU FAM167A (11723789_a_at) / Fold change /veh FAM167A (11723789_a_at) / RFU FAM26E (11764081_at) / Fold change /veh FAM26E (11764081_at) / RFU ISYNA1 (11749810_s_at) / Fold change /veh ISYNA1 (11749810_s_at) / RFU ACY1 (11761880_at) / Fold change /veh ACY1 (11761880_at) / RFU 11764098_at / Fold change /veh 11764098_at / RFU SAMD14 (11745864_x_at) / Fold change /veh SAMD14 (11745864_x_at) / RFU NPB (11741838_a_at) / Fold change /veh NPB (11741838_a_at) / RFU TMPRSS6 (11731388_a_at) / Fold change /veh TMPRSS6 (11731388_a_at) / RFU KRTAP10-2 (11738614_at) / Fold change /veh KRTAP10-2 (11738614_at) / RFU ARHGAP8 /// PRR5-ARHGAP8 (11727945_x_at) / Fold change /veh ARHGAP8 /// PRR5-ARHGAP8 (11727945_x_at) / RFU KRTAP5-7 /// NADSYN1 (11734609_at) / Fold change /veh KRTAP5-7 /// NADSYN1 (11734609_at) / RFU RASL12 (11751679_a_at) / Fold change /veh RASL12 (11751679_a_at) / RFU CDKN2B (11736163_a_at) / Fold change /veh CDKN2B (11736163_a_at) / RFU PRF1 (11729649_at) / Fold change /veh PRF1 (11729649_at) / RFU, ZNF638 /// ZNF638-IT1 / Fold change vs veh, ZNF638 /// ZNF638-IT1 / RFU, PANK3 / Fold change vs veh, PANK3 / RFU, SH3YL1 / Fold change vs veh, SH3YL1 / RFU, ZEB2 / Fold change vs veh, ZEB2 / RFU, NRIP1 / Fold change vs veh, NRIP1 / RFU, PTTG1IP / Fold change vs veh, PTTG1IP / RFU, CAPN2 / Fold change vs veh, CAPN2 / RFU, MED14 / Fold change vs veh, MED14 / RFU, SNORA58 / Fold change vs veh, SNORA58 / RFU, C1orf63 / Fold change vs veh, C1orf63 / RFU, LRRFIP1 / Fold change vs veh, LRRFIP1 / RFU, NDUFAF7 / Fold change vs veh, NDUFAF7 / RFU, SLC12A2 / Fold change vs veh, SLC12A2 / RFU, IBTK / Fold change vs veh, IBTK / RFU, ESF1 / Fold change vs veh, ESF1 / Fold change vs veh, TMEM50B / RFU, TAOK1 / Fold change vs veh, TAOK1 / RFU, ACBD3 / Fold change vs veh, ACBD3 / RFU, TMA16 / Fold change vs veh, TMA16 / RFU, RWDD3 / Fold change vs veh, RWDD3 / RFU, BCAT1 / Fold change vs veh, BCAT1 / RFU, EDEM3 / Fold change vs veh, EDEM3 / RFU, TMEM33 / Fold change vs veh, TMEM33 / RFU, WDR75 / Fold change vs veh, WDR75 / RFU, AHCTF1 / Fold change vs veh, AHCTF1 / RFU, TFRC / Fold change vs veh, TFRC / RFU, ZDHHC17 / Fold change vs veh, ZDHHC17 / RFU, NOM1 / Fold change vs veh, NOM1 / RFU, ARL8B / Fold change vs veh, ARL8B / RFU, ZBTB11 / Fold change vs veh, ZBTB11 / RFU, TAMM41 / Fold change vs veh, TAMM41 / RFU, KIAA1704 /// LOC100996395 / Fold change vs veh, KIAA1704 /// LOC100996395 / RFU, ING1 / Fold change vs veh, ING1 / RFU, TRMT61B / Fold change vs veh, TRMT61B / RFU, FUBP3 / Fold change vs veh, FUBP3 / RFU, TP53 / Fold change vs veh, TP53 / RFU, TNKS2 / Fold change vs veh, TNKS2 / RFU, ZFP14 / Fold change vs veh, ZFP14 / RFU, ACTR2 / Fold change vs veh, ACTR2 / RFU, PPP3R1 / Fold change vs veh, PPP3R1 / RFU, PIK3R1 / Fold change vs veh, PIK3R1 / RFU, HNRNPA1 / Fold change vs veh, HNRNPA1 / RFU, RNF170 / Fold change vs veh, RNF170 / RFU, ZNF28 / Fold change vs veh, ZNF28 / RFU, RNGTT / Fold change vs veh, RNGTT / RFU, OGT / Fold change vs veh, OGT / RFU, BRD1 / Fold change vs veh, BRD1 / RFU, MARS / Fold change vs veh, MARS / RFU, ZNF655 / Fold change vs veh, ZNF655 / RFU, FAHD1 / Fold change vs veh, FAHD1 / RFU, BDP1 / Fold change vs veh, BDP1 / RFU, LRRCC1 / Fold change vs veh, LRRCC1 / RFU, ARID1A / Fold change vs veh, ARID1A / RFU, ZNF146 / Fold change vs veh, ZNF146 / RFU, ZNF330 / Fold change vs veh, ZNF330 / RFU, GPN3 / Fold change vs veh, GPN3 / RFU, C9orf123 / Fold change vs veh, C9orf123 / RFU, N4BP2L2 / Fold change vs veh, N4BP2L2 / RFU, ARFIP1 / Fold change vs veh, ARFIP1 / RFU, FAM179B / Fold change vs veh, FAM179B / RFU, BCL10 / Fold change vs veh, BCL10 / RFU, UHRF1BP1L / Fold change vs veh, UHRF1BP1L / RFU, BET1 / Fold change vs veh, BET1 / RFU, CNOT2 / Fold change vs veh, CNOT2 / RFU, ZNF268 / Fold change vs veh, ZNF268 / Fold change vs veh, ZNF507 / RFU, DGCR2 / Fold change vs veh, DGCR2 / RFU, WDSUB1 / Fold change vs veh, WDSUB1 / Fold change vs veh, HSP90B1 /// MIR3652 / RFU, ADSS / Fold change vs veh, ADSS / RFU, GK / Fold change vs veh, GK / RFU, ZNF148 / Fold change vs veh, ZNF148 / RFU, TAF9 / Fold change vs veh, TAF9 / RFU, SLC1A5 / Fold change vs veh, SLC1A5 / RFU, SLMO2 / Fold change vs veh, SLMO2 / RFU, ABCC4 / Fold change vs veh, ABCC4 / RFU, LOC101060439 /// RAP1B / Fold change vs veh, LOC101060439 /// RAP1B / RFU, RFX7 / Fold change vs veh, RFX7 / RFU, GTPBP10 / Fold change vs veh, GTPBP10 / RFU, CNEP1R1 / Fold change vs veh, CNEP1R1 / RFU, BIVM-ERCC5 /// ERCC5 / Fold change vs veh, BIVM-ERCC5 /// ERCC5 / RFU, ILF3 / Fold change vs veh, ILF3 / RFU 11762660_at / Fold change /veh 11762660_at / RFU VCAN (11757783_s_at) / Fold change /veh VCAN (11757783_s_at) / RFU DDX43 (11728927_at) / Fold change /veh DDX43 (11728927_at) / RFU KRT8 (11758188_x_at) / Fold change /veh KRT8 (11758188_x_at) / RFU NKD1 (11759106_at) / Fold change /veh NKD1 (11759106_at) / RFU SRD5A1 (11742802_a_at) / Fold change /veh SRD5A1 (11742802_a_at) / RFU TPSAB1 /// TPSB2 (11721975_s_at) / Fold change /veh TPSAB1 /// TPSB2 (11721975_s_at) / RFU GSTM3 (11746129_a_at) / Fold change /veh GSTM3 (11746129_a_at) / RFU IL23R (11737362_x_at) / Fold change /veh IL23R (11737362_x_at) / RFU TMEM51 (11727254_a_at) / Fold change /veh TMEM51 (11727254_a_at) / RFU PIWIL2 (11732686_x_at) / Fold change /veh PIWIL2 (11732686_x_at) / RFU ORM1 (11744905_x_at) / Fold change /veh ORM1 (11744905_x_at) / RFU CCDC152 (11743942_at) / Fold change /veh CCDC152 (11743942_at) / RFU ECM1 (11717891_a_at) / Fold change /veh ECM1 (11717891_a_at) / RFU IL23R (11748794_a_at) / Fold change /veh IL23R (11748794_a_at) / RFU TNFAIP8L3 (11732012_x_at) / Fold change /veh TNFAIP8L3 (11732012_x_at) / RFU MBOAT4 (11741988_at) / Fold change /veh MBOAT4 (11741988_at) / RFU 11764193_at / Fold change /veh 11764193_at / RFU TMEM53 (11763286_at) / Fold change /veh TMEM53 (11763286_at) / RFU MAGEB2 (11727129_at) / Fold change /veh MAGEB2 (11727129_at) / RFU TMEM200A (11744735_a_at) / Fold change /veh TMEM200A (11744735_a_at) / RFU CCDC152 (11751479_a_at) / Fold change /veh CCDC152 (11751479_a_at) / RFU FAM211A (11726209_a_at) / Fold change /veh FAM211A (11726209_a_at) / RFU RGS16 (11746705_a_at) / Fold change /veh RGS16 (11746705_a_at) / RFU VCAN (11755009_s_at) / Fold change /veh VCAN (11755009_s_at) / RFU RHOB (11743442_s_at) / Fold change /veh RHOB (11743442_s_at) / RFU RGS16 (11720943_a_at) / Fold change /veh RGS16 (11720943_a_at) / RFU RGS16 (11720944_at) / Fold change /veh RGS16 (11720944_at) / RFU, VPS4B / Fold change vs veh, VPS4B / RFU, CREB1 / Fold change vs veh, CREB1 / RFU, DNAJC13 / Fold change vs veh, DNAJC13 / RFU, GNAQ / Fold change vs veh, GNAQ / RFU, CDK5R1 / Fold change vs veh, CDK5R1 / RFU, ZRANB3 / Fold change vs veh, ZRANB3 / RFU, CUL4A / Fold change vs veh, CUL4A / RFU, CCNY / Fold change vs veh, CCNY / RFU, UFL1 / Fold change vs veh, UFL1 / RFU, COG3 / Fold change vs veh, COG3 / RFU, DIAPH2 / Fold change vs veh, DIAPH2 / RFU, SKA2 / Fold change vs veh, SKA2 / RFU, AFF3 / Fold change vs veh, AFF3 / RFU, LMF1 / Fold change vs veh, LMF1 / RFU, IPO11 / Fold change vs veh, IPO11 / RFU, DFFB / Fold change vs veh, DFFB / RFU, FOXP1 / Fold change vs veh, FOXP1 / RFU, CARD8 / Fold change vs veh, CARD8 / RFU, STRN3 / Fold change vs veh, STRN3 / RFU, ADK / Fold change vs veh, ADK / RFU, RASSF2 / Fold change vs veh, RASSF2 / RFU, WIPF1 / Fold change vs veh, WIPF1 / RFU, LARP1B / Fold change vs veh, LARP1B / RFU, RASA1 / Fold change vs veh, RASA1 / RFU, RB1 / Fold change vs veh, RB1 / RFU, PPFIA1 / Fold change vs veh, PPFIA1 / RFU, MAT2A / Fold change vs veh, MAT2A / RFU, CCT5 / Fold change vs veh, CCT5 / RFU, WDR92 / Fold change vs veh, WDR92 / RFU, CUX1 / Fold change vs veh, CUX1 / RFU, TTC7A / Fold change vs veh, TTC7A / RFU, TMEM135 / Fold change vs veh, TMEM135 / RFU, DEPTOR / Fold change vs veh, DEPTOR / RFU, CPM / Fold change vs veh, CPM / RFU, DNAJB6 / Fold change vs veh, DNAJB6 / RFU, CACNA2D3 / Fold change vs veh, CACNA2D3 / RFU, DTX4 / Fold change vs veh, DTX4 / RFU, TFCP2 / Fold change vs veh, TFCP2 / RFU, GMCL1 /// GMCL1P1 / Fold change vs veh, GMCL1 /// GMCL1P1 / RFU, AEBP2 / Fold change vs veh, AEBP2 / RFU, SNHG1 /// SNORD22 /// SNORD25 /// SNORD26 /// SNORD27 /// SNORD28 /// SNORD29 /// SNORD31 / Fold change vs veh, SNHG1 /// SNORD22 /// SNORD25 /// SNORD26 /// SNORD27 /// SNORD28 /// SNORD29 /// SNORD31 / Fold change (Aza/veh), C12orf56 (ProbeSet 11735607_a_at) / Fold change (ACY-1035/veh), C12orf56 (ProbeSet 11735607_a_at) / Fold change (Aza/veh), FGFR1OP (ProbeSet 11751329_s_at) / Fold change (ACY-1035/veh), FGFR1OP (ProbeSet 11751329_s_at) / Fold change (Aza/veh), VPS36 (ProbeSet 11739960_a_at) / Fold change (ACY-1035/veh), VPS36 (ProbeSet 11739960_a_at) / RFU SYPL1 (11715823_x_at) / Fold change /veh SYPL1 (11715823_x_at) / RFU IGFBP7 (11715501_s_at) / Fold change /veh IGFBP7 (11715501_s_at) / RFU REEP3 (11722064_at) / Fold change /veh REEP3 (11722064_at) / RFU IGLL1 (11728026_x_at) / Fold change /veh IGLL1 (11728026_x_at): dose or concentration left out as unconfirmed. The following applies: MV-4-11 cells, 48 hours.

Take `Nc1ccc(-c2cccs2)cc1NC(=O)c1ccc2c(c1)cc(C1CC1)n2CCN1CCOCC1` [ACY-1035]: the “RFU RCAN1 (11760418_a_at)” value is on record as 20.19 RFU.

Source of the values: publication PMC5218480 (PLoS ONE, 2017).
